Results from US11174268B2, “Benzenesulfonamide compouds and their use as therapeutic agents” (Xenon Pharmaceuticals Inc., priority 2016, dated 2021).
Where a name gives a salt, the structure may show the parent alone.

Tests used:
[1] = target: T1, NaV1.6 (Homo sapiens (Human), UniProt Q9UQD0); experiment: Sodium Influx Assay (Flux), NaV1.6; assay type: cell-based; details: Trex HEK293 cells, ANG2 dye, inactivated state;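 also: Tetracycline-induced cells, compounds applied for one hour at room temperature with modulators holding channels open, IC50 from percent inhibition of sodium influx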
T1 sequence (Q9UQD0 whole entry): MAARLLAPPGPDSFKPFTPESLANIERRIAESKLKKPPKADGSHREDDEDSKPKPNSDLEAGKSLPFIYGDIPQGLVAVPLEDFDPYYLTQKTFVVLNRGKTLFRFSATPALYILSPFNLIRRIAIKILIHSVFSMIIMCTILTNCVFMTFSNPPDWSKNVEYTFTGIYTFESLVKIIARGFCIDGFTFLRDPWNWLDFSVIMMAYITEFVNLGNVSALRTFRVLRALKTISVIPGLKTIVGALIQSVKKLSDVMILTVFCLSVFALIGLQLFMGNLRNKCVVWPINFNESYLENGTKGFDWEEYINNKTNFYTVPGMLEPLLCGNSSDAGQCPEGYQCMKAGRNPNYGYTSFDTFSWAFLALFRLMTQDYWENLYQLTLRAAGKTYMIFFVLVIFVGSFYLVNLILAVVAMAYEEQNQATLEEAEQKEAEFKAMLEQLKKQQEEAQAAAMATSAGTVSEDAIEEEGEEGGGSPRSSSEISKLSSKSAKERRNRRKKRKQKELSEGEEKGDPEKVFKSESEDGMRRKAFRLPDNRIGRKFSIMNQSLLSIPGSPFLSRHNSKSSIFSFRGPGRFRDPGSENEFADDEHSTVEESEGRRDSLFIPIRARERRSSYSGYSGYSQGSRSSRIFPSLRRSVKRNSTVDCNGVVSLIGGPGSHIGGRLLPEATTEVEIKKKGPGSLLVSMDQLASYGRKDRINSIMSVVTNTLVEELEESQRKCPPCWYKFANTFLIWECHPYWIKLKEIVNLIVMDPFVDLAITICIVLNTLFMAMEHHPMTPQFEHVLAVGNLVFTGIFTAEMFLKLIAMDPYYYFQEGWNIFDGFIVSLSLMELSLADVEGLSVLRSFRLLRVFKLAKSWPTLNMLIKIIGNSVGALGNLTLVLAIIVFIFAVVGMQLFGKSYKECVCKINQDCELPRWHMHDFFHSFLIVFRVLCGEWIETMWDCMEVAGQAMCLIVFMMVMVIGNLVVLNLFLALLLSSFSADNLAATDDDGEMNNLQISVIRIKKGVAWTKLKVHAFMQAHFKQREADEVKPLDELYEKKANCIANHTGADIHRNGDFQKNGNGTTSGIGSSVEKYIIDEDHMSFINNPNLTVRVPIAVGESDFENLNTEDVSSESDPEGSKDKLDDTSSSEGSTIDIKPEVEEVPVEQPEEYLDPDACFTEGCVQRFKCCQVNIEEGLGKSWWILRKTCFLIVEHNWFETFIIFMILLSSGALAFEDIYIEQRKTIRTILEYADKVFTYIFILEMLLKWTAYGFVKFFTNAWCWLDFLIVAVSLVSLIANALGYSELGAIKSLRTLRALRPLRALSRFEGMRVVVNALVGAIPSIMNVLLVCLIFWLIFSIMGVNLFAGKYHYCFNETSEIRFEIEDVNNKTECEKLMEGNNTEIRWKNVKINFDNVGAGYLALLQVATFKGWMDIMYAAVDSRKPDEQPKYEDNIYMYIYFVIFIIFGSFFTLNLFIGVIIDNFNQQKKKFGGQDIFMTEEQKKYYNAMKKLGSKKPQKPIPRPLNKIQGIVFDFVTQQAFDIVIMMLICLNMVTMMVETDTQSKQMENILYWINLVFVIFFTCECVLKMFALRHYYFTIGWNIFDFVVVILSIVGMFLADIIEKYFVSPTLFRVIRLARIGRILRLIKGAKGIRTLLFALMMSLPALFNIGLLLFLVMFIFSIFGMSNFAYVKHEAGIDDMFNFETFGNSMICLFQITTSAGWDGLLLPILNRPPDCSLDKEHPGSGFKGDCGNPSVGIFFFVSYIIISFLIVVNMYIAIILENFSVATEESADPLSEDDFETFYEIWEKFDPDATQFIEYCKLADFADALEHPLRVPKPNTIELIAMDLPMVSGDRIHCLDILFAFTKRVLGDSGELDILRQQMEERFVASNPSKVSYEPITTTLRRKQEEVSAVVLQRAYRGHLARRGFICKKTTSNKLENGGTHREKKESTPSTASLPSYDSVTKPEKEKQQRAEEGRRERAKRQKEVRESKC

[2] = target: T1, NaV1.6; experiment: Electrophysiological Assay (EP), patch voltage clamp, NaV1.6; assay type: cell-based; details: HEK-293 cells, whole-cell patch clamp;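 also: sodium current recorded at ambient temperature, channels held inactivated then briefly repolarized to −150 mV for 20 ms before a test pulse, control currents in 0.5% DMSO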
[3] = target: T2, NaV1.1 (Homo sapiens (Human), UniProt P35498); experiment: Sodium Influx Assay (Flux), NaV1.1; assay type: cell-based; details: Trex HEK293 cells, ANG2 dye, inactivated state;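 also: channels co-expressed with human β1 subunit and held open by modulators, cells exposed to compounds for one hour at room temperature, IC50 from percent inhibition of influx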
[4] = target: T2, NaV1.1; experiment: Electrophysiological Assay (EP), patch voltage clamp, NaV1.1; assay type: cell-based; details: HEK-293 cells, whole-cell patch clamp;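 also: sodium current block measured at ambient temperature, holding at fully inactivating potential, 20 ms repolarization to −150 mV before test pulse, versus 0.5% DMSO control currents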
[5] = target: NaV1.5 (Homo sapiens (Human), UniProt Q14524); experiment: Sodium Influx Assay (Flux), NaV1.5; details: read-out: Flux NaV1.5 IC50; Trex HEK293 cells, ANG2 dye, inactivated state
NaV1.5, sequence (Q14524 other isoform, or with tags, fused parts or gaps): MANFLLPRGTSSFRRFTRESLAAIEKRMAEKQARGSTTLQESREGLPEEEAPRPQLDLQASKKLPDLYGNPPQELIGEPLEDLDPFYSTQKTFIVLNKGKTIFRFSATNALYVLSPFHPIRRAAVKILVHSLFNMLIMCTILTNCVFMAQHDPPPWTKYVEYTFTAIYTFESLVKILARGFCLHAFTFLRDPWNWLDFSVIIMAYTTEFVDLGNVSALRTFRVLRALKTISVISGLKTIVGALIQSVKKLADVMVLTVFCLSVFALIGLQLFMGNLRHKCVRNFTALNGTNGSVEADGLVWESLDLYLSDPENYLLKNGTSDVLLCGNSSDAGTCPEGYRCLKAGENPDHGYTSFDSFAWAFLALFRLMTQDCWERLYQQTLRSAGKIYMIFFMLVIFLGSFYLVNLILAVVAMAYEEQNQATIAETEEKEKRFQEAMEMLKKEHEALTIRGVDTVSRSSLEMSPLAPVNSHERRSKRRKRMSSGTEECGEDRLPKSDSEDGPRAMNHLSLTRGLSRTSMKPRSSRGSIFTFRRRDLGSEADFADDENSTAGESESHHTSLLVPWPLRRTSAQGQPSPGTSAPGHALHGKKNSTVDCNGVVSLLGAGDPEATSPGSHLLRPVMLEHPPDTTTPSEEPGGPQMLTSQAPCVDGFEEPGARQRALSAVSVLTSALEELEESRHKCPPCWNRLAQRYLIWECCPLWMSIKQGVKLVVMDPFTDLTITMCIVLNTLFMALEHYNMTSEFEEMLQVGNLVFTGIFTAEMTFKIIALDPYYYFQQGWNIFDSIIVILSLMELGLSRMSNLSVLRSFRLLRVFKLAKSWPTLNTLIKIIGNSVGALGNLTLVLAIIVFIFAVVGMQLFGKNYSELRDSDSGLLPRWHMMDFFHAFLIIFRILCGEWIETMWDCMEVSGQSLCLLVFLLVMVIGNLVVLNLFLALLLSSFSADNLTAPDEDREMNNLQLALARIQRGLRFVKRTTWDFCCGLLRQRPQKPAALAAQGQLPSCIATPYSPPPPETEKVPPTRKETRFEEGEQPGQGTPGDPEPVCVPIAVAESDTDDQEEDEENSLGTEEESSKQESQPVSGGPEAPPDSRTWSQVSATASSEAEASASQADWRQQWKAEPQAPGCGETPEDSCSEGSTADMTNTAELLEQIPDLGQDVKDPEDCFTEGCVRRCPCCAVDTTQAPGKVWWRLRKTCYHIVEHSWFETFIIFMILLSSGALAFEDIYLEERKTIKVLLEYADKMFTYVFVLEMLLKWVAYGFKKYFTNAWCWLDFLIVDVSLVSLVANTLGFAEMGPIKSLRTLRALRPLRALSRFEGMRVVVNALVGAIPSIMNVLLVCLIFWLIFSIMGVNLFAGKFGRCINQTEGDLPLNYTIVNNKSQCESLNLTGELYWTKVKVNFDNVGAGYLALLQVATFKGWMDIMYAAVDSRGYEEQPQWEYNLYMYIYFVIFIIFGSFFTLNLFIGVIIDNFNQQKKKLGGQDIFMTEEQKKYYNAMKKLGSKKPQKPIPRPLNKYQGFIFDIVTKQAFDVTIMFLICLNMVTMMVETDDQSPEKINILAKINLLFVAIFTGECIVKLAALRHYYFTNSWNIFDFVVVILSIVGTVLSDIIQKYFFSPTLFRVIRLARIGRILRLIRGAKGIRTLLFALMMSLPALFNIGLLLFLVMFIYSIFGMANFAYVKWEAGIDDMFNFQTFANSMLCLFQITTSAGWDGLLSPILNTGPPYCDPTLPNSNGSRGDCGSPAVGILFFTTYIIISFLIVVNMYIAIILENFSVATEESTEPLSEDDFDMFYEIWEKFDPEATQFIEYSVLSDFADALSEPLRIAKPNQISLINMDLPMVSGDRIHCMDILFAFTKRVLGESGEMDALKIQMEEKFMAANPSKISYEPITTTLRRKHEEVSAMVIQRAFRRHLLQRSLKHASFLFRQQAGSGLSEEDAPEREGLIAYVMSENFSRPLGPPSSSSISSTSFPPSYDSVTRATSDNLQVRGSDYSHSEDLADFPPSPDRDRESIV

| IC50 [1] [µM] | IC50 [2] [µM] | IC50 [3] [µM] | IC50 [4] [µM] | Compound | IC50 [5] [µM] |
| --- | --- | --- | --- | --- | --- |
| 0.794 | 0.041 | 3.4 | 5.31 | O=S(=O)(Nc1nccs1)c1ccc(N[C@H](c2ccccc2)C(F)(F)F)c(Cl)c1 [Example 4, (R)-3-chloro-N-(thiazol-2-yl)-4-((2,2,2-trifluoro-1-phenylethyl)amino)benzenesulfonamide formate] | 7.01 |
| 0.137 | 0.01 | 1.63 | 0.42 | C[C@H](Nc1cc(F)c(S(=O)(=O)Nc2nccs2)cc1Cl)c1cc(Cl)ccc1F [Example 8, (S)-5-chloro-4-((1-(5-chloro-2-fluorophenyl)ethyl)amino)-2-fluoro-N-(thiazol-2-yl)benzenesulfonamide] | 5.37 |
| 0.181 | 0.026 | 2.36 | 4.33 | C[C@H](Nc1ccc(S(=O)(=O)Nc2nccs2)c(F)c1Cl)c1ccccc1F [Example 9, (S)-3-chloro-2-fluoro-4-((1-(2-fluorophenyl)ethyl)amino)-N-(thiazol-2-yl)benzenesulfonamide] | 4.22 |
| 0.461 | 0.128 | 1.63 | 5.47 | C[C@H](Oc1ccc(S(=O)(=O)Nc2nccs2)c(F)c1Cl)c1ccccc1F [Example 10, (S)-3-chloro-2-fluoro-4-(1-(2-fluorophenyl)ethoxy)-N-(thiazol-2-yl)benzenesulfonamide] | 2.35 |
| 0.255 | 0.034 | 30 | 10 | O=S(=O)(Nc1nccs1)c1cc(Cl)c(OCc2cccc3ccncc23)cc1F [Example 11, 5-chloro-2-fluoro-4-(isoquinolin-8-ylmethoxy)-N-(thiazol-2-yl)benzenesulfonamide] | 30 |
| 0.029 | 0.004 | 5.41 | 2.19 | O=S(=O)(Nc1nccs1)c1cc(Cl)c(NCc2ccccc2CN2CCC2)cc1F [Example 16, 4-((2-(azetidin-1-ylmethyl)benzyl)amino)-5-chloro-2-fluoro-N-(thiazol-2-yl)benzenesulfonamide 2,2,2-trifluoroacetate] | 23.5 |
| 0.425 | 0.13 | 11.7 | 10 | O=S(=O)(Nc1cscn1)c1cc(Cl)c(NCc2ccccc2CN2CCC2)cc1F [Example 19, 4-((2-(azetidin-1-ylmethyl)benzyl)amino)-5-chloro-2-fluoro-N-(thiazol-4-yl)benzenesulfonamide 2,2,2-trifluoroacetate] | 18.5 |
| 2.05 | 1.18 | 30 | 10 | O=S(=O)(Nc1cscn1)c1cc(Cl)c(NC2(c3ccccc3)CC2)cc1F [Example 20, 5-chloro-2-fluoro-4-((1-phenylcyclopropyl)amino)-N-(thiazol-4-yl)benzenesulfonamide] | 30 |
| 1.3 | 0.259 | 4.29 | 9 | C[C@H](Nc1cc(F)c(S(=O)(=O)Nc2cccc(F)n2)cc1Cl)c1ccccc1F [Example 22, (S)-5-chloro-2-fluoro-4-((1-(2-fluorophenyl)ethyl)amino)-N-(6-fluoropyridin-2-yl)benzenesulfonamide] | 4.86 |
| 0.175 | 0.057 | 1.87 | 2.52 | C[C@H](Nc1cc(F)c(S(=O)(=O)Nc2nccs2)cc1F)c1ccccc1F [Example 25, (S)-2,5-difluoro-4-((1-(2-fluorophenyl)ethyl)amino)-N-(thiazol-2-yl)benzenesulfonamide] | 10.3 |
| 0.742 | 0.113 | 4.74 | 6.75 | C[C@H](Oc1cc(F)c(S(=O)(=O)Nc2nccs2)cc1F)c1ccccc1F [Example 26, (S)-2,5-difluoro-4-(1-(2-fluorophenyl)ethoxy)-N-(thiazol-2-yl)benzenesulfonamide] | 3.45 |
| 0.069 | 0.012 | 0.476 | 0.112 | C[C@H](Nc1cc(F)c(S(=O)(=O)Nc2nccs2)c(F)c1)c1ccccc1F [Example 27, (S)-2,6-difluoro-4-((1-(2-fluorophenyl)ethyl)amino)-N-(thiazol-2-yl)benzenesulfonamide] | 8.49 |
| 0.791 | 0.285 | 2.35 | 1.85 | CC[C@@H](Nc1cc(F)c(S(=O)(=O)Nc2nccs2)cc1Cl)c1ccccc1 [Example 39, (R)-5-chloro-2-fluoro-4-((1-phenylpropyl)amino)-N-(thiazol-2-yl)benzenesulfonamide] | 6.81 |
| 0.123 | 0.024 | 0.637 | 0.182 | CC[C@H](Nc1cc(F)c(S(=O)(=O)Nc2nccs2)cc1Cl)c1ccccc1 [Example 40, (S)-5-chloro-2-fluoro-4-((1-phenylpropyl)amino)-N-(thiazol-2-yl)benzenesulfonamide] | 7.9 |
| 0.07 | 0.01 | 0.364 | 0.031 | O=S(=O)(Nc1nccs1)c1cc(Cl)c(NC(CC(F)(F)F)c2ccccc2)cc1F (stereo not drawn) [Example 41, 5-chloro-2-fluoro-N-(thiazol-2-yl)-4-((3,3,3-trifluoro-1-phenylpropyl)amino)benzenesulfonamide] | 11.8 |
| 3.03 | 0.305 | 5.65 | 6.77 | C[C@H](Nc1cc(F)c(S(=O)(=O)Nc2nccs2)cc1Cl)C1CCCCC1 [Example 42, (S)-5-chloro-4-((1-cyclohexylethyl)amino)-2-fluoro-N-(thiazol-2-yl)benzenesulfonamide] | 14.4 |
| 0.191 | 0.028 | 2.14 | 4.1 | O=S(=O)(Nc1nccs1)c1cc(Cl)c(NC2(c3ccccc3)CC2)cc1F [Example 43, 5-chloro-2-fluoro-4-((1-phenylcyclopropyl)amino)-N-(thiazol-2-yl)benzenesulfonamide] | 11.1 |
| 0.347 | 0.13 | 1.27 | 2.09 | O=S(=O)(Nc1nccs1)c1cc(Cl)c(NC2(c3ccc(F)cc3)CC2)cc1F [Example 44, 5-chloro-2-fluoro-4-((1-(4-fluorophenyl)cyclopropyl)amino)-N-(thiazol-2-yl)benzenesulfonamide] | 30 |
| 0.232 | 0.019 | 0.888 | 0.26 | C[C@H](Nc1cc(F)c(S(=O)(=O)Nc2nccs2)cc1Cl)c1cccc(F)c1 [Example 49, (S)-5-chloro-2-fluoro-4-((1-(3-fluorophenyl)ethyl)amino)-N-(thiazol-2-yl)benzenesulfonamide] | 4.75 |
| 0.265 | 0.025 | 3.24 | 1.02 | CC[C@H](Nc1cc(F)c(S(=O)(=O)Nc2nccs2)cc1Cl)c1ccccc1C [Example 54, (S)-5-chloro-2-fluoro-N-(thiazol-2-yl)-4-((1-(o-tolyl)propyl)amino)benzenesulfonamide] | 13.5 |
| 0.949 | 0.292 | 4.03 | 1.42 | CC(Cc1cccnc1)Nc1cc(F)c(S(=O)(=O)Nc2nccs2)cc1Cl (stereo not drawn) [Example 56, 5-chloro-2-fluoro-4-((1-(pyridin-3-yl)propan-2-yl)amino)-N-(thiazol-2-yl)benzenesulfonamide] | 30 |
| 0.138 | 0.052 | 17.3 | 3.1 | O=S(=O)(Nc1cccc(F)n1)c1cc(Cl)c(NCc2cccc3ccncc23)cc1F [Example 62, 5-chloro-2-fluoro-N-(6-fluoropyridin-2-yl)-4-((isoquinolin-8-ylmethyl)amino)benzenesulfonamide] | 30 |
| 0.392 | 0.066 | 14.1 | 10 | CN(C)CC(Nc1cc(F)c(S(=O)(=O)Nc2nccs2)cc1Cl)c1ccccc1 (stereo not drawn) [Example 63, 5-Chloro-4-((2-(dimethylamino)-1-phenylethyl)amino)-2-fluoro-N-(thiazol-2-yl)benzenesulfonamide 2,2,2-trifluoroacetate] | 30 |
| 0.197 | 0.085 | 14.5 | 10 | CN(C)C[C@@H](Nc1cc(F)c(S(=O)(=O)Nc2nccs2)cc1Cl)c1ccccc1 [Example 64, (S)-5-chloro-4-((2-(dimethylamino)-1-phenylethyl)amino)-2-fluoro-N-(thiazol-2-yl)benzenesulfonamide 2,2,2-trifluoroacetate] | 30 |

| Compound | IC50 [1] [µM] | IC50 [2] [µM] | IC50 [3] [µM] | IC50 [4] [µM] | IC50 [5] [µM] |
| --- | --- | --- | --- | --- | --- |
| 5-chloro-2-fluoro-4-((1-(2-fluorophenyl)ethyl)amino)-N-(thiazol-2-yl)benzenesulfonamide [Example 144] | 0.214 | 0.034 | 2.54 | 0.907 | 9.67 |
| CC[C@@H](Nc1ccc(S(=O)(=O)Nc2ncns2)cc1Cl)c1ccccc1 [Example 31, (R)-3-chloro-4-((1-phenylpropyl)amino)-N-(1,2,4-thiadiazol-5-yl)benzenesulfonamide] | 0.917 | 0.118 | 6.17 | 10 | 16.9 |
| CC[C@H](Nc1cc(F)c(S(=O)(=O)Nc2nccs2)cc1Cl)c1ccccc1F [Example 47, (S)-5-chloro-2-fluoro-4-((1-(2-fluorophenyl)propyl)amino)-N-(thiazol-2-yl)benzenesulfonamide] | 0.089 | 0.01 | 0.816 | 0.114 | 6.52 |
